Consider ten molecules from US20180214428A1, “3-(1H-INDOL-2-YL)-1H-PYRAZOLO[3,4-B]PYRIDINES AND THERAPEUTIC USES THEREOF” (Samumed, LLC, priority 2015, published 2018).

Test [1] relates to primary human fibroblasts derived from IPF patients (LL29 cells). The test can be described thus: Inhibition of the fibrotic process: αSMA staining in TGF-β1 treated LL29 fibroblasts. As to conditions: Homo sapiens, Fibroblast, 96 h, TGF-β1 20 ng/mL, 4 days, % αSMA positive cells. The test is classed as cell-based. An excerpt:
Representative compounds were screened using primary human fibroblasts (derived from IPF patients) treated with TGF-β1 to determine their ability to inhibit the fibrotic process.
Primary human fibroblasts derived from IPF patients (LL29 cells) [^1Xiaoqiu Liu, et. al., “Fibrotic Lung Fibroblasts Show Blunted Inhibition by cAMP Due to Deficient cAMP Response Element-Binding Protein Phosphorylation”, Journal of Pharmacology and Experimental Therapeutics (2005), 315(2), 678-687; ^2Watts, K. L., et. al., “RhoA signaling modulates cyclin D1 expression in human lung fibroblasts; implications for idiopathic pulmonary fibrosis”, Respiratory Research (2006), 7(1), 88] were obtained from American Type Culture Collection (ATCC) and expanded in F12 medium supplemented with 15% Fetal Bovine Serum and Penicillin/Streptomycin.
Each compound was dissolved in DMSO as a 10 mM stock and used to prepare compound source plates. Serial dilution (1:2, 11-point dose-response curves from 10 μM to […]) and compound transfer was performed using the ECHO 550 (Labcyte, Sunnyvale, Calif.) into 384-well clear bottom assay plates (Greiner Bio-One) with appropriate DMSO backfill for a final DMSO concentration of 0.1%. LL29 cells are plated at 1,500 cells/well in 80 μL/well F12 medium supplemented with 1% Fetal Bovine Serum. One hour after addition of the cells, TGF-01 (Peprotech; 20 ng/mL) was added to the plates to induce fibrosis (ref. 1 and 2 above). Wells treated with TGF-β1 and containing DMSO were used as controls. Cells were incubated at 37° C. and 5% CO2 for 4 days. Following incubation for 4 days, SYTOX green nucleic acid stain (Life Technologies [Thermo Fisher Scientific]) was added to the wells at a final concentration of 1 μM and incubated at room temperature for 30 min. Cells were then fixed using 4% formaldehyde (Electron Microscopy Sciences), washed 3 times with PBS followed by blocking and permeabilization using 3% Bovine Serum Albumin (BSA; Sigma) and 0.3% Triton X-100 (Sigma) in PBS. Cells were then stained with antibody specific to α-smooth muscle actin (aSMA; Abcam) (ref. 1 and 2 above) in 3% Bovine Serum Albumin (BSA; Sigma) and 0.3% Triton X-100 (Sigma) in PBS, and incubated overnight at 4° C. Cells were then washed 3 times with PBS, followed by incubation with Alexa Flor-647 conjugated secondary antibody (Life Technologies [Thermo Fisher Scientific]) and DAPI at room temperature for 1 hour. Cells were then washed 3 times with PBS and plates were sealed for imaging. αSMA staining was imaged by excitation at 630 nm and emission at 665 nm and quantified using the Compartmental Analysis program on the CellInsight CX5 (Thermo Scientific). Dead or apoptotic cells were excluded from analysis based on positive SYTOX green staining. % of total cells positive for aSMA were counted in each well and normalized to the average of 11 wells treated with TGF-01 on the same plate using Dotmatics' Studies Software. The normalized averages (fold change over untreated) of 3 replicate wells for each compound concentration were used to create dose-responses curves and EC50 values were calculated using non-linear regression curve fit in the Dotmatics' Studies Software. For EC50 of >10 μM, the percent inhibition at 10 μM is provided.

For another test, the system named is SW480 colon cancer cells. The test can be described thus: Cell viability assay (CellTiter-Blue) in SW480 colon cancer cells. The test is classed as cell-based, human. As to conditions: Homo sapiens, 96 h, four days, CellTiter-Blue. How it is done:
Representative compounds were screened using the following assay procedure to assess the effect on cell viability as described below.
Each compound was dissolved in DMSO as a 10 mM stock and used to prepare compound source plates. Serial dilution (1:3, 8-point dose-response curves from 10 μM to 0.0045 μM) and compound transfer was performed using the ECHO 550 (Labcyte, Sunnyvale, Calif.) into 96-well clear bottom, black-walled plates (Corning-Costar).
Approximately 2×10^3 SW480 colon cancer cells were seeded into each well and allowed to incubate in the presence or absence of compound for four days at 37° C./5% CO2. Eight replicates of DMSO-treated cells served as controls and cells treated with compound were performed in duplicate.
After incubation, 20 μL of CellTiter-Blue (Promega) was added to each well allowed to incubate for approximately 3 hours. This reagent was a buffered solution which contains resazurin, metabolically active cells were able to reduce rezarurin (blue) into resorufin (pink) which was highly fluorescent. This measured fluorescence was used as a readout for cell viability.
After incubation, the plates were read at Ex 560 nm Em 590 nm (Cytation 3, BioTek). Dose-response curves were generated and EC50 concentration values were calculated using non-linear regression curve fit in the GraphPad Prism (San Diego, Calif.) or Dotmatics' Studies Software (Bishops Stortford, UK). For EC50 of >10 μM, the percent inhibition at 10 μM is provided.
(The colour change of resazurin is a common sign of viable cells or microbes.)

In the next test the test system is IL-6. The test can be described thus: IL-6 inhibition in LPS-stimulated THP-1 monocytes (HTRF). It is filed as cell-based, human. The conditions noted are these: Homo sapiens; THP-1 cells, 500 ng/mL LPS, 22 h, HTRF IL-6 readout; 10-point dose-response from 10 μM. How it is done: Human monocyte cell line (THP-1 cells; Catalog # TIB-202, ATCC, Manassas, Va.) were cultured in Roswell Park Memorial Institute (RPMI) 1640 Medium (Catalog #21870-100, Buffalo, N.Y.) with 1% L-glutamine, 1% HEPES, 1% Sodium Pyruvate, 2% Sodium Bicarbonate supplemented with 100 units/mL penicillin, 50 μg/mL streptomycin, 2-mercaptoethanol (0.05 mM) [basal medium] and 10% fetal bovine serum (Catalog #16140089, Life Technologies, Carlsbad, Calif.) at 37° C. and 5% CO2.
THP-1 cells were cultured in basal media with 1% FBS for 24 hours before the start of the assay. Each compound was dissolved in DMSO as a 10 mM stock and used to prepare compound source plates. Serial dilution (1:3, 10-point dose-response curves starting from 10 μM) and compound transfer was performed using the ECHO 550 (Labcyte, Sunnyvale, Calif.) into 384-well white low volume assay plates (Greiner Bio-One) with appropriate DMSO backfill for a final DMSO concentration of 0.1%. THP-1 cells were plated at 5000 cells/well in the 384-well plates and incubated at 37° C. for 2 h. 500 ng/mL of LPS was added after 2 hours and cells were incubated for another 22 hours at 37° C. Plates were spun in a centrifuge for 1 minute at […] and a mixture of anti-IL6 XL665, and anti-IL6 Cryptate diluted in reconstitution buffer (Cisbio Inc.) was added to each well. Following incubation for 3 hrs at room temperature, Homogeneous Time-Resolved Fluorescence (HTRF) was measured using the Envision (Perkin Elmer) at 665 nm and […]. The ratio of fluorescence at 665 nm to 620 nm was used as a readout for IL6 quantification. All samples were processed in duplicate. Readings were normalized to DMSO treated cells and normalized activities were utilized for EC50 calculations using the dose-response log (inhibitor) vs. response variable slope (four parameters) nonlinear regression feature available in GraphPad Prism 5.0 (or Dotmatics). For EC50 of >10 μM, the percent inhibition at 10 μM is provided.

For test [2], the system named is Wnt activity (Sp5-Luc reporter gene, SW480 colon carcinoma cells). The test can be described thus: Screening assay for Wnt activity: Sp5-Luc reporter gene assay in SW480 cells. It is filed as cell-based, human. The conditions noted are these: Homo sapiens, overnight incubation. An excerpt: The screening assay for Wnt activity is described as follows. Reporter cell lines can be generated by stably transducing cancer cell lines (e.g., colon cancer) or primary cells (e.g., IEC-6 intestinal cells) with a lentiviral construct that includes a Wnt-responsive promoter driving expression of the firefly luciferase gene.
SW480 colon carcinoma cells were transduced with a lentiviral vector expressing luciferase with a human Sp5 promoter consisting of a sequence of eight TCF/LEF binding sites. SW480 cells stably expressing the Sp5-Luc reporter gene and a hygromycin resistance gene were selected by treatment with 150 μg/mL of hygromycin for 7 days. These stably transduced SW480 cells were expanded in cell culture and used for all further screening activities. Each compound was dissolved in DMSO as a 10 mM stock and used to prepare compound source plates. Serial dilution (1:3, 10-point dose-response curves starting from 10 μM) and compound transfer was performed using the ECHO 550 (Labcyte, Sunnyvale, Calif.) into 384-well white solid bottom assay plates (Greiner Bio-One) with appropriate DMSO backfill for a final DMSO concentration of 0.1%. For Sp5-Luc reporter gene assays, the cells were plated at 4,000 cells/well in 384-well plates with medium containing 1% fetal bovine serum and incubated overnight at 37° C. and 5% CO2. Following incubation, 20 μl of BrightGlo luminescence reagent (Promega) was added to each well of the 384-well assay plates. The plates were placed on an orbital shaker for 2 min and then luminescence was quantified using the Envision (Perkin Elmer) plate reader. Readings were normalized to DMSO only treated cells, and normalized activities were utilized for EC50 calculations using the dose-response log (inhibitor) vs. response variable slope (four parameters) nonlinear regression feature available in GraphPad Prism 5.0 (or Dotmatics). For EC50 of >10 μM, the percent inhibition at 10 μM is provided.
Background: Reporter assays use an easily measured gene product as a stand-in for the process of interest.

Turning to `CC(C)(C)C(=O)Nc1cncc(-c2cnc3[nH]nc(-c4cc5ccccc5[nH]4)c3c2)c1` [Compound 235, N-(5-(3-(1H-Indol-2-yl)-1H-pyrazolo[3,4-b]pyridin-5-yl)pyridin-3-yl) pivalamide], the EC50 in test [1] was 282 nM; in the test on SW480 colon cancer cells, 3460 nM; with IL-6 it was 350 nM; in test [2], 732 nM.
Turning to `O=C(Nc1cncc(-c2cnc3[nH]nc(-c4cc5ccccc5[nH]4)c3c2)c1)C1CCC1` [Compound 247, N-(5-(3-(1H-Indol-2-yl)-1H-pyrazolo[3,4-b]pyridin-5-yl)pyridin-3-yl) cyclobutanecarboxamide], the EC50 came out at 67 nM in test [1], 1360 nM in the test with SW480 colon cancer cells, 100 nM in the test with IL-6 and 530 nM in test [2].
The matching figures for `Cn1cc(-c2cnc3[nH]nc(-c4cc5c(-c6cccs6)cccc5[nH]4)c3c2)cn1` [Compound 702, 5-(1-Methyl-1H-pyrazol-4-yl)-3-(4-(thiophen-2-yl)-1H-indol-2-yl)-1H-pyrazolo[3,4-b]pyridine]: 874 nM, 1120 nM, 1370 nM and 1320 nM.
Regarding `O=C(Nc1cncc(-c2cnc3[nH]nc(-c4cc5c(N6CCCCC6)cccc5[nH]4)c3c2)c1)C1CC1` [Compound 164, N-(5-(3-(4-(piperidin-1-yl)-1H-indol-2-yl)-1H-pyrazolo[3,4-b]pyridin-5-yl)pyridin-3-yl)cyclopropanecarboxamide], the EC50 in test [1] is 4330 nM; in the test on SW480 colon cancer cells, 9940 nM; in the test on IL-6, 1190 nM; in test [2], 1080 nM.
The matching figures for `CN(C)c1cncc(-c2cnc3[nH]nc(-c4cc5ncccc5[nH]4)c3c2)c1` [Compound 485, 5-(3-(1H-Pyrrolo[3,2-b]pyridin-2-yl)-1H-pyrazolo[3,4-b]pyridin-5-yl)-N,N-dimethylpyridin-3-amine]: 2790 nM, 3440 nM, 7400 nM and 3810 nM.
For `Cc1ccncc1-c1cnc2[nH]nc(-c3cc4c(N5CCN(C)CC5)cccc4[nH]3)c2c1` [Compound 205, 3-(4-(4-Methylpiperazin-1-yl)-1H-indol-2-yl)-5-(4-methylpyridin-3-yl)-1H-pyrazolo[3,4-b]pyridine], the EC50 was 2560 nM in test [1], 3270 nM in the test with SW480 colon cancer cells, 477 nM in the test on IL-6 and 3420 nM in test [2].
The matching figures for `CC(C)Nc1cncc(-c2cnc3[nH]nc(-c4cc5c(-c6ccccc6F)cccc5[nH]4)c3c2)c1` [Compound 57, 5-(3-(4-(2-Fluorophenyl)-1H-indol-2-yl)-1H-pyrazolo[3,4-b]pyridin-5-yl)-N-isopropylpyridin-3-amine]: 411 nM, 1820 nM, 753 nM and 371 nM.
Consider `Cc1ncc(-c2cnc3[nH]nc(-c4cc5ncccc5[nH]4)c3c2)n1C` [Compound 997, 5-(1,2-Dimethyl-1H-imidazol-5-yl)-3-(1H-pyrrolo[3,2-b]pyridin-2-yl)-1H-pyrazolo[3,4-b]pyridine], for which the EC50 was 744 nM in test [1], 3940 nM with SW480 colon cancer cells, 9000 nM in the test on IL-6 and 1080 nM in test [2].
Consider `CS(=O)(=O)NCc1cc(F)cc(-c2cccc3[nH]c(-c4n[nH]c5ncc(-c6cncc(NC(=O)C7CC7)c6)cc45)cc23)c1` [Compound 470, N-(5-(3-(4-(3-Fluoro-5-(methylsulfonamidomethyl)phenyl)-1H-indol-2-yl)-1H-pyrazolo[3,4-b]pyridin-5-yl)pyridin-3-yl)cyclopropanecarboxamide], for which the EC50 in test [1] came to 1330 nM; in the test with SW480 colon cancer cells it was 1060 nM; in the test on IL-6 it was 541 nM; in test [2] it was 484 nM.
Consider `CN(C)Cc1cncc(-c2cnc3[nH]nc(-c4cc5c(N6CCCCC6)cccc5[nH]4)c3c2)c1` [Compound 157, N,N-Dimethyl-1-(5-(3-(4-(piperidin-1-yl)-1H-indol-2-yl)-1H-pyrazolo[3,4-b]pyridin-5-yl)pyridin-3-yl)methanamine], for which the EC50 in test [1] stood at 1230 nM; with SW480 colon cancer cells, 1860 nM; in the test on IL-6, 2310 nM; in test [2], 1460 nM.

By EC50 is commonly meant the concentration at which the effect is half-maximal.
